{"source": "paper PMC8609519", "about": "“Potent Inhibitor of Human Trypsins from the Aeruginosin Family of Natural Products” (ACS Chemical Biology, 2021)", "key": {"human Factor Xa": {"molecular_target": "T1, human Factor Xa (Homo sapiens, UniProt P00742)", "T1 construct": "purchased Sigma", "T1 sequence (P00742 235-488 limits assumed)": "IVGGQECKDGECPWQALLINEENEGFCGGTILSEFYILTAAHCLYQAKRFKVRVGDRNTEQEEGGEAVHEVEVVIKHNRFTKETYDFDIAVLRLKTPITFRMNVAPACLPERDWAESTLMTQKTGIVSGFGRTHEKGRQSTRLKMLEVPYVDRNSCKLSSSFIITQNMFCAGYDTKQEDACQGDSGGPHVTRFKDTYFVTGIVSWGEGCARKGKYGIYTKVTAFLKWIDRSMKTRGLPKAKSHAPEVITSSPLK", "T1 sequence (P00742 41-179 partner limits assumed)": "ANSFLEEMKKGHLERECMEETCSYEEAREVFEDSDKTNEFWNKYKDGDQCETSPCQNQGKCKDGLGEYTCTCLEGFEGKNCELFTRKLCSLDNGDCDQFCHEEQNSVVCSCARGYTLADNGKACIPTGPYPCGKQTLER", "test": "Serine protease inhibition, chromogenic substrate S-2222", "type": "biochemical", "details": "read-out: IC50, human Factor Xa", "experimental": "(§1) Recombinant trypsinogens-1, -2, and -3 were produced inEscherichia coliand activated to trypsin-1, -2, and -3 as described previously.[45] The enzyme inhibitory activity of suomilide was determined in 96-well plates by adding 10 μL of diluted suomilide (0.21–3400 nM, diluted in ultra-purified water, containing up to 0.027% DMSO), 15 μL of 0.1% bovine serum albumin in 50 mM Tris-buffer saline (BSA/TBS), and 25 μL of each trypsin (1.88 nM). 10 μL of ultra-purified water was used as a control. […] Preincubation of suomilide with trypsin isoenzymes prior to the addition of the substrate was required for maximal inhibition (data not shown). Thus, suomilide was preincubated with trypsins at room temperature for 30 min before the addition of 50 μL of 0.2 mM chromogenic substrate S-2222 (ChromogeniX) in ultra-purified water. The change of absorbance at 405 nm was followed for 15 min (VICTOR X4 multilabel plate reader, PerkinElmer). The experiment was performed three times, each with two replicates (n = 3). The absorbance change during the phase of the substrate reaction in which the absorbance of the control reaction increased linearly over time was determined. The same experiment was performed with plasmin (Sigma) (15 nM) with chromogenic substrate S-2251 (ChromogeniX); plasma KLK (Sigma) (20 nM) with substrate ChromogeniX S-2302 (ChromogeniX); Factor Xa (Sigma) (3 nM) with substrate S-2222; and thrombin (Sigma) (1 nM) with substrate S-2238 (ChromogeniX). Except for urokinase from human kidney cells (Sigma) (125 IU), 15 μL of BSA/TBS with 0.9% NaCl was used. Nine 4-fold dilutions of suomilide were prepared, with 12.5 μM being the highest final concentration. The IC50 values were estimated using Quest Graph, and the standard error was calculated using MS Excel 2013."}, "[1]": {"molecular_target": "T2, recombinant human trypsin-2 (Homo sapiens, UniProt P07478)", "T2 construct": "made in house; host or cells: Escherichia coli", "T2 sequence (P07478 24-247)": "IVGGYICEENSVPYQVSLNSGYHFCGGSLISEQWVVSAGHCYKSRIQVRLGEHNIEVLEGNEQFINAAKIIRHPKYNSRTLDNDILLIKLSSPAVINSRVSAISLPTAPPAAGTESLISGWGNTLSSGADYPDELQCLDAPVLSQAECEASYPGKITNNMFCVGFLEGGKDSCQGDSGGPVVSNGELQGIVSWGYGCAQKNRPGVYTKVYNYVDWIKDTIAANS", "test": "Serine protease inhibition, chromogenic substrate S-2222", "type": "biochemical", "details": "read-out: IC50, trypsin-2; 30 min preincubation, substrate S-2222, n = 3", "experimental": "as §1"}, "trypsin-1 [2]": {"molecular_target": "T3, trypsin-1 (Homo sapiens, UniProt P07477)", "T3 construct": "made in house; host or cells: Escherichia coli", "test": "Serine protease inhibition, chromogenic substrate S-2222", "type": "biochemical", "details": "read-out: IC50, trypsin-1; 30 min preincubation, substrate S-2222, n = 3", "experimental": "as §1"}, "trypsin-3 [3]": {"molecular_target": "T4, trypsin-3 (Homo sapiens, UniProt P35030)", "T4 construct": "made in house; host or cells: Escherichia coli", "T4 sequence (P35030 81-304 limits assumed)": "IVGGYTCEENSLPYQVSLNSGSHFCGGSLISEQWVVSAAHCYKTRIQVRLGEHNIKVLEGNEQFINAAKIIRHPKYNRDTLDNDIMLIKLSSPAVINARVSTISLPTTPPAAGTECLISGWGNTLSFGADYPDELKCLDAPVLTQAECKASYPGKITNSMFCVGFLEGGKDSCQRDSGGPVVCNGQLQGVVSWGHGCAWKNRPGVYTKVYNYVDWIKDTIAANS", "test": "Serine protease inhibition, chromogenic substrate S-2222", "type": "biochemical", "details": "read-out: IC50, trypsin-3; 30 min preincubation, substrate S-2222, n = 3", "experimental": "as §1"}, "human plasmin": {"molecular_target": "T5, human plasmin (Homo sapiens, UniProt P00747)", "T5 construct": "purchased Sigma", "T5 sequence (P00747 581-810 limits assumed)": "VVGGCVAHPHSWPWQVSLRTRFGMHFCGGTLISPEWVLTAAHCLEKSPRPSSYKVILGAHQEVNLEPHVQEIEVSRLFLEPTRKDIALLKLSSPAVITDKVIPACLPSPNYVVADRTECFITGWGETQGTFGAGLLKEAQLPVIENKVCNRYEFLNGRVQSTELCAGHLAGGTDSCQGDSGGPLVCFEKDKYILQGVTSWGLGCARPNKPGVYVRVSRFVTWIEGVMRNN", "T5 sequence (P00747 97-580 partner limits assumed)": "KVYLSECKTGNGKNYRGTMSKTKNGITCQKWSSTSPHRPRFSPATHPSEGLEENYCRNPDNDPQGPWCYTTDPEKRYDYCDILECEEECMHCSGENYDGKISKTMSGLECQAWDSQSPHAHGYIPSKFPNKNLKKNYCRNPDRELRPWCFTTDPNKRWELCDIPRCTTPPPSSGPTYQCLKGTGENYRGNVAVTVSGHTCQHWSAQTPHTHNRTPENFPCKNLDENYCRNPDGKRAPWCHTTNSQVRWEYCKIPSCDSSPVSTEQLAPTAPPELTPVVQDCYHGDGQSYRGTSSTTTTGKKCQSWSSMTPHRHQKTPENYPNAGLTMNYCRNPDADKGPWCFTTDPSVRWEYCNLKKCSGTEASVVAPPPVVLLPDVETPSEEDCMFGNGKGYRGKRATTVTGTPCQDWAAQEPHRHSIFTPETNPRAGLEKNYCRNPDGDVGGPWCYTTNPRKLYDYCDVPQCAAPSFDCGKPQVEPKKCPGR", "test": "Serine protease inhibition, chromogenic substrate S-2251", "type": "biochemical", "details": "read-out: IC50, human plasmin", "experimental": "as §1, with “The same experiment was performed with plasmin (Sigma) (15 nM) with chromogenic substrate S-2251 (ChromogeniX); plasma KLK (Sigma) (20 nM) with substrate ChromogeniX S-2302 (ChromogeniX); Factor Xa (Sigma) (3 nM) with substrate S-2222; and thrombin (Sigma) (1 nM) with substrate S-2238 (ChromogeniX). Except for urokinase from human kidney cells (Sigma) (125 IU), 15 μL of BSA/TBS with 0.9% NaCl was used. Nine 4-fold dilutions of suomilide were prepared, with 12.5 μM being the highest final concentration.” left out"}, "human plasma kallikrein": {"molecular_target": "T6, human plasma kallikrein (Homo sapiens, UniProt P03952)", "T6 construct": "purchased Sigma", "T6 sequence (P03952 391-638 limits assumed)": "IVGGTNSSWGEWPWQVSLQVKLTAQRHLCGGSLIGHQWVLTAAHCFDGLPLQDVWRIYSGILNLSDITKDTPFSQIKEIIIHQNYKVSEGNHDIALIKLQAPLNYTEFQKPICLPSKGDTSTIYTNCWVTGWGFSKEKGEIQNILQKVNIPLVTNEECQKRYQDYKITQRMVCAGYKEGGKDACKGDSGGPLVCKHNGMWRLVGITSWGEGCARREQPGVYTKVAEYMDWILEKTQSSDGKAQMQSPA", "T6 sequence (P03952 20-390 partner limits assumed)": "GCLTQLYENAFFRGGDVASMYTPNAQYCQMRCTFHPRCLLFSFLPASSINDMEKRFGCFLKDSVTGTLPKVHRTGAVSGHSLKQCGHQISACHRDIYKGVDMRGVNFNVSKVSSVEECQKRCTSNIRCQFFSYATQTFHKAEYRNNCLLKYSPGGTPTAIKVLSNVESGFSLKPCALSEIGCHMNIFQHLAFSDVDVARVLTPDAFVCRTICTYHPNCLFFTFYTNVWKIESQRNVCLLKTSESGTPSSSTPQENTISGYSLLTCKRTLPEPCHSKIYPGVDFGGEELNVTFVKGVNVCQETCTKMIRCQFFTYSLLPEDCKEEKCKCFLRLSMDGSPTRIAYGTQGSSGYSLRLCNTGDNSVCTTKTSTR", "test": "Serine protease inhibition, chromogenic substrate S-2302", "type": "biochemical", "details": "read-out: IC50, human plasma kallikrein", "experimental": "as §1, with “The same experiment was performed with plasmin (Sigma) (15 nM) with chromogenic substrate S-2251 (ChromogeniX); plasma KLK (Sigma) (20 nM) with substrate ChromogeniX S-2302 (ChromogeniX); Factor Xa (Sigma) (3 nM) with substrate S-2222; and thrombin (Sigma) (1 nM) with substrate S-2238 (ChromogeniX). Except for urokinase from human kidney cells (Sigma) (125 IU), 15 μL of BSA/TBS with 0.9% NaCl was used. Nine 4-fold dilutions of suomilide were prepared, with 12.5 μM being the highest final concentration.” left out"}, "human urokinase": {"molecular_target": "T7, human urokinase (Homo sapiens, UniProt P00749)", "T7 construct": "purchased Sigma; host or cells: human kidney cells", "test": "Serine protease inhibition, urokinase from human kidney cells", "type": "biochemical", "details": "read-out: IC50, human urokinase", "experimental": "as §1, with “The same experiment was performed with plasmin (Sigma) (15 nM) with chromogenic substrate S-2251 (ChromogeniX); plasma KLK (Sigma) (20 nM) with substrate ChromogeniX S-2302 (ChromogeniX); Factor Xa (Sigma) (3 nM) with substrate S-2222; and thrombin (Sigma) (1 nM) with substrate S-2238 (ChromogeniX). Except for urokinase from human kidney cells (Sigma) (125 IU), 15 μL of BSA/TBS with 0.9% NaCl was used. Nine 4-fold dilutions of suomilide were prepared, with 12.5 μM being the highest final concentration.” left out"}, "human thrombin": {"molecular_target": "T8, human thrombin (Homo sapiens, UniProt P00734)", "T8 construct": "purchased Sigma", "test": "Serine protease inhibition, chromogenic substrate S-2238", "type": "biochemical", "details": "read-out: IC50, human thrombin, highest final concentration 12.5 μM", "experimental": "as §1, with “The same experiment was performed with plasmin (Sigma) (15 nM) with chromogenic substrate S-2251 (ChromogeniX); plasma KLK (Sigma) (20 nM) with substrate ChromogeniX S-2302 (ChromogeniX); Factor Xa (Sigma) (3 nM) with substrate S-2222; and thrombin (Sigma) (1 nM) with substrate S-2238 (ChromogeniX). Except for urokinase from human kidney cells (Sigma) (125 IU), 15 μL of BSA/TBS with 0.9% NaCl was used. Nine 4-fold dilutions of suomilide were prepared, with 12.5 μM being the highest final concentration.” left out"}, "trypsin-1 [4]": {"molecular_target": "T3, trypsin-1", "test": "Surface plasmon resonance (Biacore) kinetic analysis", "type": "binding", "details": "SPR", "experimental": "(§2) The binding of suomilide to trypsin-1 and -3 was analyzed with surface plasmon resonance in Biacore 2000 instrumentation (Cytiva). […] The binding was analyzed using Tris-buffered saline (pH 7.4) containing 0.01% DMSO as the running buffer and a flow rate of 30 μL min^–1. The kinetics of the suomilide interaction with the trypsins were measured by varying suomilide concentrations from 250 to 4000 nM with a contact time of 5 min and a dissociation phase of 20 min. After the completion of the dissociation phase, the flow cells were regenerated with 10 mM Glycine, pH 1.7. The data were evaluated by first subtracting the sensorgrams obtained from the trypsin-3 mutant control flow cell from those obtained from the flow cells containing trypsin-1 or -3 for each suomilide concentration separately and overlaying the resulting sensorgrams for each ligand. Association and dissociation rate constants were obtained by the Langmuir global fit model (BiaEvaluation Software, Cytiva). The residence time was calculated as a reciprocal of the […]."}, "trypsin-3 [5]": {"molecular_target": "T4, trypsin-3", "test": "Surface plasmon resonance (Biacore) kinetic analysis", "type": "binding", "details": "SPR", "experimental": "as §2"}, "[6]": {"system": "PC-3M prostate cancer cells", "test": "Transwell cell invasion assay through Matrigel", "type": "cell-based, human", "details": "3.3 μM, 4 days, Transwell with Matrigel", "experimental": "(§3) PC-3M prostate cancer cells[46] were cultured in Ham’s F12 Nutrient Mix with GlutaMAX (Gibco), supplemented with 10% fetal calf serum (FCS), 100 IU mL^–1 penicillin, 100 μg mL^–1 streptomycin, and 0.15% sodium bicarbonate at 37 °C in a humidified, CO2-controlled (5%) incubator. For the invasion assay, PC-3M cells (1.45 × 10^5) in a serum-free medium containing 0 or 3.3 μM suomilide were added into polycarbonate membrane Transwell inserts with 8.0 μm pore size (Thermo Fisher) covered with 100 μL of the phenol red-free Matrigel basement membrane matrix (Corning) diluted 1:30 with phosphate-buffered saline. The inserts were placed into a 24-well plate containing 750 μL of the culture medium with 10% FCS and incubated for 4 days at 37 °C in a humidified, CO2-controlled (5%) incubator. Matrigel and the noninvasive cells were removed using cotton swabs, and the membranes were stained with 0.09% crystal violet for 10 min. The experiment was performed twice, both with four replicates (n = 2). The invasion was quantitated from microscopic images (three panels from each of the replicates) using Fiji ImageJ. […] After 3 days, 10 μL/well CCK-8 solution (Cell Counting Kit-8, Dojindo) was added, and absorbance at 450 nm was measured after 1.5 h incubation. […]"}, "[7]": {"system": "PC-3M prostate cancer cells", "test": "Cell proliferation assay (CCK-8)", "type": "cell-based, human", "details": "3.3 μM, 3 days, cells on plastic surface", "experimental": "as §3"}, "[8]": {"system": "unspecified but most likely non-human trypsin isoenzyme", "design": "method as in doi:10.1016/s0040-4039(97)01193-3", "details": "cited from earlier work"}, "thrombin": {"system": "thrombin", "design": "method as in doi:10.1016/s0040-4039(97)01193-3", "details": "cited from earlier work"}, "plasmin": {"system": "plasmin", "design": "method as in doi:10.1016/s0040-4039(97)01193-3", "details": "cited from earlier work"}, "all three human trypsins": {"system": "all three human trypsins", "design": "method as in PMID 28463992", "details": "equally inhibits all three human trypsins; cited from earlier work"}}, "note": "Entries after “also recorded” stand apart in the source; their conditions may differ.", "data": [{"smiles": "CCCCCC(=O)OCC1OC(OC2CC3C(O)C4(C2)OC(=O)NC4C(C(=O)NCCC2=CCN(C(=N)N)C2)N3C(=O)C(NC(=O)C(COS(=O)(=O)O)OC)C(C)CC)C(OC(=O)CCCCC)C(O)C1O", "note": "(stereo not drawn) [suomilide]", "values": [{"measurement": "IC50", "setting": "human Factor Xa", "result": "114 ± 2", "unit": "nM"}, {"measurement": "IC50", "setting": "[1]", "result": 4.7, "unit": "nM"}, {"measurement": "IC50", "setting": "trypsin-1 [2]", "result": 104, "unit": "nM"}, {"measurement": "IC50", "setting": "trypsin-3 [3]", "result": 11.5, "unit": "nM"}, {"measurement": "IC50", "setting": "human plasmin", "result": "7.6 ± 2.3", "unit": "nM"}, {"measurement": "IC50", "setting": "human plasma kallikrein", "result": "82 ± 24", "unit": "nM"}, {"measurement": "IC50", "setting": "human urokinase", "result": "7.1 ± 1.36", "unit": "µM"}, {"measurement": "IC50", "setting": "human thrombin", "result": "> 12.5", "unit": "µM"}, {"measurement": "kon", "setting": "trypsin-1 [4]; immobilized trypsin-1, Langmuir global fit, read-out: ka (association rate constant), trypsin-1", "result": 33000, "unit": "M⁻¹ s⁻¹"}, {"measurement": "koff", "setting": "trypsin-1 [4]; immobilized trypsin-1, Langmuir global fit, read-out: kd (dissociation rate constant), trypsin-1", "result": 0.011, "unit": "s⁻¹"}, {"measurement": "residence time", "setting": "trypsin-1 [4]; calculated as reciprocal of the dissociation constant, read-out: residence time (τ), trypsin-1", "result": 1.5, "unit": "min"}, {"measurement": "kon", "setting": "trypsin-3 [5]; immobilized trypsin-3, Langmuir global fit, read-out: ka (association rate constant), trypsin-3", "result": 12000, "unit": "M⁻¹ s⁻¹"}, {"measurement": "koff", "setting": "trypsin-3 [5]; immobilized trypsin-3, Langmuir global fit, read-out: kd (dissociation rate constant), trypsin-3", "result": 0.00029, "unit": "s⁻¹"}, {"measurement": "residence time", "setting": "trypsin-3 [5]; calculated as reciprocal of the dissociation constant, read-out: residence time (τ), trypsin-3", "result": 57, "unit": "min"}, {"measurement": "effect on PC-3M cell invasion", "setting": "[6]", "result": "inhibited the invasion; also recorded: significantly inhibited"}, {"measurement": "effect on PC-3M cell proliferation", "setting": "[7]", "result": "without affecting cell proliferation; also recorded: did not affect"}, {"measurement": "inhibition of trypsin (concentration range)", "setting": "[8]", "result": "low micromolar concentrations"}, {"measurement": "IC50", "setting": "[8]; unspecified, most likely non-human trypsin", "result": 1800, "unit": "nM"}, {"measurement": "inhibition of thrombin (concentration range)", "setting": "thrombin", "result": "low micromolar concentrations"}, {"measurement": "inhibition of plasmin (concentration range)", "setting": "plasmin", "result": "low micromolar concentrations"}]}, {"smiles": "N=C(N)c1ccc(/N=N/Nc2ccc(C(=N)N)cc2)cc1", "note": "[diminazene]", "values": [{"measurement": "inhibition of human trypsins (concentration range)", "setting": "all three human trypsins", "result": "micromolar concentrations"}]}]}
